# How the values were obtained:
# [1] = in vivo; cited from earlier work
# blood coagulation = assay: Thrombelastography (TEG) of whole blood during Flolan infusion; format: in vivo, healthy humans; details: Flolan 4 ng/kg/min i.v. for 2 h; samples after 60 and 120 min infusion vs baseline; 6 healthy volunteers; kaolin
# Text: The TEG analyzer uses a small whole blood sample in a rotating cup and a pin suspended in the blood by a torsion wire, which is monitored for motion. To speed up the clot formation, a standardized amount of an activator of coagulation (e.g. Kaolin, tissue factor) may be added to the cup just before the pin is placed in the cup. The torque of the rotating cup is transmitted to the immersed pin only after fibrin and/or fibrin-platelet bonding has linked the cup and pin together. The strength and rate of these bonds affect the magnitude of the pin motion such that strong clots move the pin directly in phase with cup motion. Thus, the TEG technology documents the interaction of platelets with the protein coagulation cascade from the time of placing the blood in the analyzer until initial fibrin formation, clot rate strengthening and fibrin-platelet bonding via GPIIb/IIIa, through eventual clot lysis. The TEG R parameter reflects the initiation phase, reaction time, from start of coagulation until the first fibrin band is formed; the Angle (α) represents the increase in clot strength, clot kinetics, correlating with the thrombin generation. The maximal amplitude (MA) parameter reflects maximal clot strength i.e. the maximal elastic modus of the clot.
# Six healthy volunteers were administered Flolan (prostacyclin analog) intravenously at a dose of 4 ng/kg/min for 2 h. Blood samples for whole blood viscoelastical assay (Thrombelastography [TEG]) and whole blood platelet aggregation (Multiplate) was obtained before infusion of Flolan, after 60 min infusion of Flolan and after 120 min infusion of Flolan.
# With regard to the TEG assay this was performed as recommended by the manufacturer and 340 μl are mixed with 20 μl CaCl 0.2 M (final concentration 11.1 mM in the cup) and kaolin at 37° C. after which the haemostatic activity was recorded as shown in WO 2010/075861.
# platelet aggregation = assay: Multiplate whole blood impedance aggregometry during Flolan infusion; format: in vivo, healthy humans; details: Flolan 4 ng/kg/min i.v. for 2 h; after 60 and 120 min infusion; any of the agonists investigated (ASPI, COL, TRAP, ADP); 6 volunteers
# Text: Multiplate whole blood aggregometry is a platelet function test, (Multiplate®, Dynabyte Medical, Munich, Germany). […] The increase of impedance by the attachment of platelets onto the Multiplate sensors is transformed to arbitrary aggregation units (AU) and plotted against time. The aggregation can then be measured in AUC*min (area under the curve*min) determined by the plot of units against time. Additionally, the aggregation can also be expressed in units (U) (1 unit=10 AU*min). Multiplate thereby allows analyzing the effect of compounds on platelet aggregation. […] Blood samples for whole blood viscoelastical assay (Thrombelastography [TEG]) and whole blood platelet aggregation (Multiplate) was obtained before infusion of Flolan, after 60 min infusion of Flolan and after 120 min infusion of Flolan. Whole blood impedance aggregometry was analyzed by the Multiple Platelet function Analyzer (MultiPlate® analyzer). […]
# thrombomodulin = assay: Plasma biomarker ELISA after Flolan infusion: thrombomodulin; format: in vivo, healthy individuals; details: 4 ng/kg/min i.v. for 2 h; 8 healthy volunteers; plasma 0-24 h; effect continuing several hours after ceasing infusion
# Protocol: (§1) Eight healthy volunteers were administered Flolane (Prostacyclin) intravenously at a dose of 4 ng/kg/min for 2 h. Blood samples were analyzed for plasma biomarkers indicative of endothelial cell (thrombomodulin, PAI-1) and glycocalyx (syndecan-1) activation and/or damage, cellular necrosis (histone-complexed DNA fragments, HMGB1) and anticoagulation (protein C, antithrombin, TFPI) at the following time points: Before the infusion (0 h), immediately after ceasing the infusion (2 h) and then 4 h, 5 h, 6 h, 8 h and 24 h after starting the infusion.
# (§2) The concentration of the individual biomarkers in plasma was analyzed by commercially available ELISA kits according to the manufactures recommendations. Paired t-tests with p-values <0.05 were considered significant.
# Protein C = assay: Plasma biomarker ELISA after Flolan infusion: Protein C; format: in vivo, healthy individuals; details: 4 ng/kg/min i.v. for 2 h; 8 healthy volunteers; in the hours after ceasing the infusion
# Protocol: as §1, §2
# PAI-1 = assay: Plasma biomarker ELISA after Flolan infusion: PAI-1; format: in vivo, healthy individuals; details: 4 ng/kg/min i.v. for 2 h; 8 healthy volunteers; plasma 0-24 h
# Protocol: as §1, §2
# antithrombin = assay: Plasma biomarker ELISA after Flolan infusion: antithrombin; format: in vivo, healthy individuals; details: 4 ng/kg/min i.v. for 2 h; 8 healthy volunteers; plasma 0-24 h
# Protocol: as §1, §2
# [2] = tested on: histone-complexed DNA fragments; assay: Plasma biomarker ELISA after Flolan infusion: histone-complexed DNA fragments; format: in vivo, healthy individuals; details: 4 ng/kg/min i.v. for 2 h; 8 healthy volunteers; plasma 0-24 h
# Protocol: as §1, §2
# HMGB1 = assay: Plasma biomarker ELISA after Flolan infusion: HMGB1; format: in vivo, healthy individuals; details: 4 ng/kg/min i.v. for 2 h, 8 healthy volunteers
# Protocol: as §1, §2
# syndecan-1 = assay: Plasma biomarker ELISA after Flolan infusion: syndecan-1; format: in vivo, healthy individuals; details: 4 ng/kg/min i.v. for 2 h; 8 healthy volunteers; plasma 0-24 h
# Protocol: as §1, §2
# TFPI = assay: Plasma biomarker ELISA after Flolan infusion: TFPI; format: in vivo, healthy individuals; details: 4 ng/kg/min i.v. for 2 h; 8 healthy volunteers; plasma 0-24 h
# Protocol: as §1, §2
# [3] = epoprostenol sodium compared with iloprost; cited from earlier work
# [4] = infusion in doses below 2 ng/kg/minute; cited from earlier work
smiles,measurement,setting,value
CC#CCC(C)[C@H](O)/C=C/[C@@H]1[C@H]2c3cccc(CCCC(=O)O)c3O[C@H]2C[C@H]1O (mixture of isomers) [beraprost],half time,[1],35 to 40 min
"CCCCC[C@H](O)/C=C/[C@@H]1[C@H]2C/C(=C/CCCC(=O)O)O[C@H]2C[C@H]1O [Flolan, epoprostenol sodium]",TEG Angle vs baseline,blood coagulation,No significant difference
same,TEG MA vs baseline,blood coagulation,No significant difference
same,TEG R vs baseline,blood coagulation,No significant difference
same,Multiplate values vs baseline,platelet aggregation,no significant difference
same,circulating level of thrombomodulin,thrombomodulin,marked decrease
same,circulating level of Protein C,Protein C,decreased
same,circulating level of PAI-1,PAI-1,declined
same,circulating level of antithrombin,antithrombin,decreased
same,cell necrosis biomarker histone-complexed DNA fragments,[2],did not influence
same,HMGB1 at 5 h,"HMGB1; 5 h after starting infusion, p=0.056",tendency towards a reduction
same,cell necrosis biomarker HMGB1,HMGB1; plasma 0-24 h,did not influence
same,glycocalyx shedding (syndecan-1),syndecan-1,did not induce or influence
same,circulating level of TFPI,TFPI,did not induce or influence glycocalyx shedding (syndecan-1) (FIG. 6A) or affected the circulating level of TFPI
same,half time,[1],0.5 to 3 min
same,relative potency,[3],equipotent
same,duration of hypotensive episodes,[4],1 to 2 h
same,side effects: bleeding tendency,[4],no bleeding tendency
same,side effects: hypotensive episodes,[4],a few self-limiting hypotensive episodes
CC#CCC(C)[C@H](O)/C=C/[C@@H]1[C@H]2C/C(=C/CCCC(=O)O)C[C@H]2C[C@H]1O (stereo partly shown) [iloprost],half time,[1],20 to 30 min
same,relative potency,[3],equipotent
CCCCC[C@H](O)CC[C@@H]1[C@H]2Cc3cccc(OCC(=O)O)c3C[C@H]2C[C@H]1O [treprostinil],half time,[1],less than 4 hours

# Source: patent US20140044797A1, “PROSTACYCLIN AND ANALOGS THEREOF ADMINISTERED DURING SURGERY FOR PREVENTION AND TREATMENT OF CAPILLARY LEAKAGE” (Rigshospitalet, priority 2011, published 2014)
